Where “and” joins values, the source holds several entries; their conditions need not be identical. Equal entries are not always repeated.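 Dose response: 5 concentrations. Exposure: 48 h. Format: 96-well plates. Endpoint: linear interpolation; highest concentration if not reached. GI50 = concentration required for 50% inhibition of growth. The concentration for full growth arrest is given as TGI.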
Assays:
Test in all cases: NCI tumour cell line growth inhibition, 48 h
[1] = tested on: EKVX NSCLC
[2] = tested on: HCT-116 colon
[3] = tested on: HOP-18 NSCLC
[4] = tested on: MALME-3M melanoma
[5] = tested on: SK-MEL-2 melanoma
[6] = tested on: SK-MEL-28 melanoma
[7] = tested on: SN12C renal
[8] = tested on: UO-31 renal
[9] = tested on: HS 578T breast
[10] = tested on: PC-3 prostate

C/C(=C\c1ccccc1)C(=O)CCN1CCOCC1
TGI [1]: 42.7 µM
TGI [2]: > 56.4 µM
TGI [3]: 32.3 µM
TGI [4]: 33 µM
TGI [5]: > 59.9 µM
TGI [6]: 35.4 µM
TGI [7]: 32.8 µM
TGI [8]: 41.5 µM

C=C1C(O)C2(O)OCC34C(CC5C(C)=CC(=O)C(O)C5(C)C23)OC(=O)C(OC(=O)C/C=C(\C)CCCCC)C14 (configuration not stated)
GI50 [1]: 0.0479 µM
GI50 [2]: < 0.001 µM
TGI [3]: 1.1 µM
TGI [9]: < 0.001 µM
GI50 [4]: < 0.001 µM
TGI [4]: < 0.001 µM
TGI [10]: 0.0032 µM and 0.0141 µM
GI50 [5]: 0.00113 µM
TGI [5]: 0.00985 µM and 0.042 µM
GI50 [6]: < 0.001 µM
GI50 [7]: 0.00157 µM
GI50 [8]: 0.0483 µM and 0.258 µM
TGI [8]: 0.269 µM and 1.21 µM and 0.22 µM

COc1cc(/C=C/C(=O)O)ccc1C(=O)O/C=C/c1ccccc1
TGI [1]: > 100 µM
TGI [2]: > 100 µM
TGI [3]: > 100 µM
TGI [4]: > 100 µM
TGI [5]: > 100 µM
TGI [6]: > 100 µM
TGI [7]: > 100 µM
TGI [8]: > 100 µM

CCN(CC)CCNc1ccc2nnn3c4ccc(OC)cc4c(=O)c1c23
TGI [2]: 14.5 µM
TGI [3]: 23.2 µM
TGI [4]: 22.3 µM
TGI [5]: 27.4 µM
TGI [6]: 28.9 µM
TGI [7]: 19.9 µM
TGI [8]: 22.2 µM

C=C1C(=O)OC2/C=C(\CO)C(OC(C)=O)CC(O)/C(C)=C/C(OC(=O)C(C)CC)C12 (configuration not stated)
TGI [1]: 54.5 µM and 61.5 µM
TGI [2]: 27.6 µM and 42.5 µM
TGI [3]: 38.5 µM
TGI [9]: > 100 µM
TGI [4]: 31.2 µM and 32 µM
TGI [10]: > 100 µM
TGI [5]: 32.3 µM and 33.1 µM
TGI [6]: 32.3 µM and 70.1 µM
TGI [7]: 36 µM and 36.6 µM
TGI [8]: > 100 µM

CSCCC(NCc1c(O)ccc2c(-c3ccccc3)cc(=O)oc12)C(=O)O (configuration not stated)
TGI [1]: > 100 µM
TGI [2]: > 100 µM
TGI [9]: > 100 µM
TGI [4]: > 100 µM
TGI [10]: > 100 µM
TGI [5]: > 100 µM
TGI [6]: > 100 µM
TGI [7]: > 100 µM
TGI [8]: > 100 µM

O=C1CCSSCCC(=O)NCCN1
TGI [1]: > 100 µM
TGI [2]: > 100 µM
TGI [9]: > 100 µM
TGI [4]: > 100 µM
TGI [10]: > 100 µM
TGI [5]: > 100 µM
TGI [6]: > 100 µM
TGI [7]: > 100 µM
TGI [8]: > 100 µM

CC(=O)OC(C)c1cc2c(s1)C(=O)c1sccc1C2=O (configuration not stated)
TGI [1]: 3.7 µM
TGI [2]: 2.48 µM
TGI [9]: 7.36 µM
TGI [4]: 0.407 µM
TGI [10]: 14.2 µM
TGI [5]: 2.41 µM
TGI [6]: 3.64 µM
TGI [7]: 2.26 µM
TGI [8]: 3.28 µM

C=C1[C@@H](O)C[C@@]23CC[C@@H]4[C@@]5(C)CC[C@@H](OC(C)=O)C(C)(C)[C@@H]5C[C@@H](OC5OC(COC(C)=O)C(O)C(O)C5O)[C@@]4(C)C2=CC[C@H]3[C@H]1C (some centres not stated)
TGI [1]: 25.9 µM
TGI [2]: 10.7 µM
TGI [9]: 22.4 µM
TGI [4]: 23.9 µM
TGI [10]: 13.9 µM
TGI [5]: 7.39 µM
TGI [6]: 19.8 µM
TGI [7]: 21 µM
TGI [8]: 28 µM

CN(C)C(CN)CC1=C(CC(CN)N(C)C)CCC1 (configuration not stated)
TGI [1]: > 100 µM
TGI [2]: > 100 µM
TGI [3]: > 100 µM
TGI [4]: > 100 µM
TGI [5]: > 100 µM
TGI [6]: > 100 µM
TGI [7]: > 100 µM
TGI [8]: > 100 µM

NC(=O)C(=O)N/N=C1/c2ccccc2CC1C1(O)C(=O)Nc2c(Cl)cc(Cl)cc21 (configuration not stated)
TGI [1]: > 100 µM
TGI [2]: > 100 µM
TGI [3]: > 100 µM
TGI [4]: > 100 µM
TGI [5]: > 100 µM
TGI [6]: > 100 µM
TGI [7]: > 100 µM
TGI [8]: > 100 µM

CCOC1CC(=O)c2c(Br)sc(Br)c21 (configuration not stated)
TGI [1]: 42.7 µM
TGI [2]: 38.4 µM
TGI [9]: 90.6 µM
TGI [4]: 40.8 µM
TGI [10]: 47.2 µM
TGI [5]: 37.2 µM
TGI [6]: 39.5 µM
TGI [7]: 58.4 µM
TGI [8]: 33.5 µM

CCOC(=O)C1=C(C(C)=O)CSC(c2ccccc2)=N1
TGI [1]: > 100 µM
TGI [2]: > 100 µM
TGI [3]: > 100 µM
TGI [4]: > 100 µM
TGI [5]: > 100 µM
TGI [6]: > 100 µM
TGI [7]: > 100 µM
TGI [8]: > 100 µM

COP(=O)(O)/C=C/C(NC(=O)C(Cl)(Cl)Cl)c1ccccc1 (configuration not stated)
TGI [1]: > 100 µM
TGI [2]: > 100 µM
TGI [9]: > 100 µM
TGI [4]: > 100 µM
TGI [10]: > 100 µM
TGI [5]: > 100 µM
TGI [6]: > 100 µM
TGI [7]: > 100 µM
TGI [8]: > 100 µM

O=C(O)C1CC(c2ccc(F)cc2)=Nc2ccc(F)cc2S1 (configuration not stated)
TGI [1]: > 100 µM
TGI [2]: > 100 µM
TGI [9]: > 100 µM
TGI [4]: > 100 µM
TGI [10]: > 100 µM
TGI [5]: > 100 µM
TGI [6]: > 100 µM
TGI [7]: > 100 µM
TGI [8]: > 100 µM

Cc1cc(C)c2c(=O)n(CN3CC4Nc5ccccc5C4C3)sc2n1 (configuration not stated)
TGI [1]: 88.5 µM
TGI [2]: 43.7 µM
TGI [9]: > 100 µM
TGI [4]: 27.8 µM
TGI [10]: 50.6 µM
TGI [5]: 54.2 µM
TGI [6]: 82.3 µM
TGI [7]: > 100 µM
TGI [8]: 32.5 µM

COc1cc(/C=C2\C(=O)N(C(=O)Cc3ccccc3)N=C2C)ccc1O
TGI [1]: > 100 µM
TGI [2]: > 100 µM
TGI [3]: > 100 µM
TGI [4]: > 100 µM
TGI [5]: > 100 µM
TGI [6]: > 100 µM
TGI [7]: > 100 µM
TGI [8]: > 100 µM

O=C(CP(=O)(O)O)c1cccs1
TGI [1]: > 100 µM
TGI [2]: > 100 µM
TGI [3]: > 100 µM
TGI [4]: > 100 µM
TGI [5]: > 100 µM
TGI [6]: > 100 µM
TGI [7]: > 100 µM
TGI [8]: > 100 µM

COc1cc2c(cc1OCCCCOc1cc(-c3ccc(F)cc3)nc(C)n1)N=C[C@@H]1CCCN1C2=O
TGI [1]: 5.18 µM
TGI [2]: 8.59 µM
TGI [9]: 2.79 µM
TGI [4]: 1.82 µM
TGI [10]: 6.07 µM
TGI [5]: 2.31 µM
TGI [6]: 2.81 µM
TGI [7]: 7.55 µM
TGI [8]: 12 µM

CC1(C)O[C@@H]2COC(=O)[C@@H]2O1
TGI [1]: > 100 µM
TGI [2]: > 100 µM
TGI [9]: > 100 µM
TGI [4]: > 100 µM
TGI [10]: > 100 µM
TGI [5]: > 100 µM
TGI [6]: > 100 µM
TGI [7]: > 100 µM
TGI [8]: > 100 µM

CCCCn1c2c(n(CCCC)c1=S)-c1c(n(CCCC)c(=S)n1CCCC)S[Se][Se]S2
TGI [1]: 24.3 µM
TGI [2]: 16.9 µM
TGI [9]: 44.2 µM
TGI [4]: 5.09 µM
TGI [10]: > 34.2 µM
TGI [5]: > 55.6 µM
TGI [6]: > 61.4 µM
TGI [7]: 99.1 µM
TGI [8]: 9.02 µM

COCOc1ccc(OC)cc1
TGI [1]: > 100 µM
TGI [2]: > 100 µM
TGI [3]: > 100 µM
TGI [4]: > 100 µM
TGI [5]: > 100 µM
TGI [6]: > 100 µM
TGI [7]: > 100 µM
TGI [8]: > 100 µM

CCC[C@H]1C(=O)N=C(N)N1C(=O)OCc1ccccc1
TGI [1]: > 100 µM
TGI [2]: > 100 µM
TGI [9]: > 100 µM
TGI [4]: > 100 µM
TGI [10]: > 100 µM
TGI [5]: > 100 µM
TGI [6]: > 100 µM
TGI [7]: > 100 µM
TGI [8]: > 100 µM

CC(C)=C[C@@H]1C[C@H](n2cc(C)c(=O)[nH]c2=O)ON1CCO
TGI [1]: > 100 µM
TGI [2]: > 100 µM
TGI [9]: > 100 µM
TGI [4]: > 100 µM
TGI [10]: > 100 µM
TGI [5]: > 100 µM
TGI [6]: > 100 µM
TGI [7]: > 100 µM
TGI [8]: > 100 µM

CC(C)(C)N=c1n(C(C)(C)C)oc(=O)n1C(C)(C)C
TGI [1]: > 100 µM
TGI [2]: > 100 µM
TGI [9]: > 100 µM
TGI [4]: > 100 µM
TGI [10]: > 100 µM
TGI [5]: > 100 µM
TGI [6]: > 100 µM
TGI [7]: > 100 µM
TGI [8]: > 100 µM

CCC12C[N+]3([O-])CCc4c([nH]c5ccccc45)C(C(=O)OC)(c4cc5c(cc4OC)N(C)C4C(O)(C(=O)OC)C(OC(C)=O)C6(CC)C=CCN7CCC54C76)CC(C3)C1O2 (configuration not stated)
TGI [1]: 18 µM
TGI [2]: 11.6 µM
TGI [3]: 47.5 µM
TGI [4]: 22.9 µM
TGI [5]: 0.649 µM
TGI [6]: 0.959 µM
TGI [7]: 24.5 µM
TGI [8]: 14.4 µM

CCC1=CCC23C(=O)C=CC(=O)C2(C1)C(=O)c1cccc(OC)c1C3=O (configuration not stated)
TGI [1]: 32.9 µM
TGI [2]: 30.4 µM
TGI [9]: 57.3 µM
TGI [4]: 30 µM
TGI [10]: 28.4 µM
TGI [5]: > 100 µM
TGI [6]: 33.3 µM
TGI [7]: 35.2 µM
TGI [8]: 22.7 µM

From PubChem BioAssay (NCI)
